Assay results published in patent publication US5919464A, “Treatment of aberrant cellular states with biomodulators” (University of New Mexico, priority 1993, dated 1999).

Tests used:
solid tumor models = conditions: in words; cited from earlier work
B16 melanoma cells = assay: effect of swainsonine on cytotoxic T-lymphocytes (51Cr cytotoxicity assay); format: in vivo, mouse
Description: The cytotoxicity assay used two targets: YAC-1, for natural killer cell targets and B16 melanoma cells, for cytolytic T-cell targets. The YAC-1 cells were labelled in GKN (glucose/KCl/NaCl) with ^51 Cr (NEN-DuPont,400-1200 Ci/g activity) for 60 min. The B16's were ^51 Cr labelled in complete α-MEM media for 60 min. Both targets were washed twice through whole fetal calf serum to remove damaged and dead cells and then suspended in complete RPMI at a final concentration of 1×10^5 cells/ml. The spleen cells (effector cells) were plated in round bottom 96 well trays starting at 1×10^7 cells/ml (100μl/well), using a halving dilution that provided splenocyte concentrations of 10^6, 5×10^5, 2.5×10^5, 1.25×10^5, 6.25×10^4 and 3.125×10^4, all done in triplicate. The target cells were added at 1×10^4 cell/100 μl/well; this gave an effector:target cell ratio ranging from 100:1 to 3:1. Controls included spontaneous ^51 Cr release and 100% lysis (10% triton treatment). The trays were centrifuged at 50×g for 5 min. and incubated in a CO2 incubator at 37° C. for 16 hours. The trays were spun again at 50×g for 5 minutes and 100 μl removed from each well for counting. A Packard gamma counter (United Technologies) was used for counting. Each sample was counted for 1 min. giving a 5% counting efficiency. The following equation was used to determine percent lysis. [formula]
The effector:target ratios were then plotted against percent lysis and a simple line equation was determined for each treatment group. The slope of this line was then used to determine the total effector kill efficiency.
The ^51 Cr cytotoxicity assay was also run with the B16 melanoma cells as the target and the splenocytes from the same mice as above as the effector cells. The baseline mice (no tumor/no Sw) and the control mice (tumor/no Sw) had very similar line shapes and slopes. There were significant differences (p=0.03) between the presence and absence of tumor (see Table in FIG. 68).

## O[C@H]1[C@H]2[C@H](O)CCCN2C[C@H]1O [Swainsonine, swainsonine]
Solid tumor models
  growth of other solid tumors: delay growth in several other solid tumor models
B16 melanoma cells; 0.1 μg Sw alone
  increase in line slope (kill efficiency): 104%
B16 melanoma cells; 0.1 μg Sw for 3 weeks, in words
  CTL activity before exposure to specific target: significant increase in the CTL activity
B16 melanoma cells; 0.1 μg Sw with tumors, tumor control 17.5%
  convertability from NK to CTL: 39%
